Drawing on patent US12589158B2 (priority 2022, dated 2026), this text covers MRT inf and MRT last for six molecules.

Data set [1] can be described thus: Pharmacokinetics following single administration in SD rat. Set-up: species or system SD rats. The following applies: in vivo, sc, 50 nmol/kg. Here is the method: The compound is administrated to male SD rats (230-268 g, n=3) at a dose of 50.0 nmol/kg (s.c.) or 25.0 nmol/kg (i.v.). […] 30.0 μL of thawed plasma sample is taken. 150 μL of acetonitrile solution (containing 5 ng mL^−1 Verapamil, 50 ng·mL^−1 Glibenclamide, 200 ng·mL^−1 Tolbutamide and 200 ng·mL^−1 Diclofenac) are added to precipitate protein. The mixture is vortexed for 5 minutes, and centrifuged at 3700 rpm for 8 minutes. 70.0 μL of the supernatant is taken, into which 70.0 μL of 0.5% aqueous formic acid solution is added. The mixture is vortexed for 5 minutes. 15 μL of the mixture solution is sampled and injected into the LC-MS/MS to determine the drug concentration in plasma. 20.0 μL of thawed plasma sample is taken. 60 μL of acetonitrile solution (containing 5 ng mL^−1 Verapamil, 50 ng·mL^−1 Glibenclamide, 200 ng·mL^−1 Tolbutamide and 200 ng·mL^−1 Diclofenac) are added to precipitate protein. […] The mixture is vortexed for 10 minutes. 10.0 μL of the mixture solution is sampled and injected into the LC-MS/MS to determine the drug concentration in plasma. 30.0 μL of thawed plasma sample is taken. 150 μL of acetonitrile solution (containing 5 ng mL^−1 Verapamil, 50 ng mL^−1 Glibenclamide, 200 ng·mL^−1 Tolbutamide and 200 ng·mL^−1 Diclofenac) are added to precipitate protein. The mixture is vortexed for 5 minutes, and centrifuged at 3700 rpm for 8 minutes. 70.0 μL of the supernatant is taken, into which 70.0 μL of 0.5% aqueous formic acid solution is added. The mixture is vortexed for 5 minutes. 10.0 μL of the mixture solution is sampled and injected into the LC-MS/MS to determine the drug concentration in plasma.

A short description of data set [2]: Pharmacokinetics in cynomolgus monkeys. Conditions: cynomolgus monkey, in vivo, sc, 25 nmol/kg. On the procedure: After subcutaneous or intravenous administration to cynomolgus monkeys, plasma is collected and the drug concentration in plasma is determined to illustrate the in vivo pharmacokinetic properties of the compound according to the present invention. The compound is dissolved in 1.4% PG in 8 mM Na2HPO4 Buffer (pH 7.39), and filtered through a filter membrane (PTFE, 0.45 μm) to obtain 25 and 12.5 nmol/mL solution of the compound respectively. The obtained solutions are administered to cynomolgus monkeys (4-8 kg) at a dose of 25 nmol/kg subcutaneously (s.c.) or 12.5 nmol/kg intravenously (i.v.). […] The blood samples are centrifuged at 2200 g for 10 minutes to obtain a plasma, which is stored at −90° C. to −60° C. for further analysis and assay.
70.0 μL of thawed plasma sample is taken. 70 μL of acetonitrile (containing 1 ng/ml of the internal standard) is added to precipitate protein. The mixture is vortexed for 1 minute, and centrifuged at 14000 rpm for 10 minutes. 60.0 μL of the supernatant is taken, into which 60.0 μL of 0.5% aqueous formic acid solution is added. The mixture is vortexed for 5 minutes. 10 μL of the mixture solution is sampled and injected into the LC-MS/MS to determine the drug concentration in plasma.
Based on the drug concentration in plasma of the compounds in the cynomolgus monkeys, the pharmacokinetic parameters are calculated by applying the software Winnolin 8.2 in a non-compartmental model, and the results are shown in Table 9 and Table 10 below.

Each structure is given as a SMILES string.

What is called MRT inf is a mean duration of stay, worked out from the concentration-time curve. What is called MRT last is the average time that molecules of a dose stay in the body. Turning to `CC[C@H](C)[C@H](NC(=O)C(C)(C)NC(=O)[C@H](Cc1ccc(O)cc1)NC(=O)[C@H](CC(=O)O)NC(=O)[C@H](CO)NC(=O)[C@@H](NC(=O)C(C)(Cc1ccccc1)NC(=O)[C@@H](NC(=O)CNC(=O)[C@H](CCC(=O)O)NC(=O)C(C)(C)NC(=O)[C@@H](N)Cc1ccc(O)cc1)[C@@H](C)O)[C@@H](C)O)C(=O)NC(C)(C)C(=O)N[C@@H](CC(C)C)C(=O)N[C@@H](CC(=O)O)C(=O)N[C@@H](CCCCN)C(=O)N[C@@H](CCC(N)=O)C(=O)N[C@@H](C)C(=O)N[C@@H](CCC(N)=O)C(=O)N[C@@H](C)C(=O)N[C@@H](CCC(=O)O)C(=O)N[C@@H](Cc1ccccc1)C(=O)N[C@H](C(=O)N[C@@H](CCCCNC(=O)COCCOCCNC(=O)COCCOCCNC(=O)CC[C@H](NC(=O)CCCCCCCCCCCCCCCCC(=O)O)C(=O)O)C(=O)N[C@@H](Cc1c[nH]c2ccccc12)C(=O)N[C@@H](CC(C)C)C(=O)N[C@@H](CC(C)C)C(=O)N[C@@H](CCCCN)C(=O)NCC(=O)NCC(=O)N1CCC[C@H]1C(=O)N[C@@H](CO)C(=O)N[C@@H](CO)C(=O)NCC(=O)N[C@@H](C)C(=O)N1CCC[C@H]1C(=O)N1CCC[C@H]1C(=O)N1CCC[C@H]1C(=O)N[C@@H](CO)C(=O)N[C@@H](CCCCN)C(N)=O)C(C)C` (some centres unmarked) [P007], in data set [1], the MRT inf turned out to be 25.7 ± 1.69 h and the MRT last worked out at 21.4 ± 1.87 h.

In data set [1], `CC[C@H](C)[C@H](NC(=O)C(C)(C)NC(=O)[C@H](Cc1ccc(O)cc1)NC(=O)[C@H](CC(=O)O)NC(=O)[C@H](CO)NC(=O)[C@@H](NC(=O)C(C)(Cc1ccccc1)NC(=O)[C@@H](NC(=O)CNC(=O)[C@H](CCC(=O)O)NC(=O)C(C)(C)NC(=O)[C@@H](N)Cc1ccc(O)cc1)[C@@H](C)O)[C@@H](C)O)C(=O)NC(C)(C)C(=O)N[C@@H](CC(C)C)C(=O)N[C@@H](CC(=O)O)C(=O)N[C@@H](CCCCN)C(=O)N[C@@H](CCC(N)=O)C(=O)N[C@@H](C)C(=O)N[C@@H](CCC(N)=O)C(=O)N[C@@H](C)C(=O)N[C@@H](CCC(=O)O)C(=O)N[C@@H](Cc1ccccc1)C(=O)N[C@H](C(=O)N[C@@H](CCCCN)C(=O)N[C@@H](Cc1c[nH]c2ccccc12)C(=O)N[C@@H](CC(C)C)C(=O)N[C@@H](CC(C)C)C(=O)N[C@@H](CCCCNC(=O)COCCOCCNC(=O)COCCOCCNC(=O)CC[C@H](NC(=O)CCCCCCCCCCCCCCCCC(=O)O)C(=O)O)C(=O)NCC(=O)NCC(=O)N1CCC[C@H]1C(=O)N[C@@H](CO)C(=O)N[C@@H](CO)C(=O)NCC(=O)N[C@@H](C)C(=O)N1CCC[C@H]1C(=O)N1CCC[C@H]1C(=O)N1CCC[C@H]1C(=O)N[C@@H](CO)C(=O)N[C@@H](CCCCN)C(N)=O)C(C)C` (some centres unmarked) [P008] had an MRT inf of 25.4 h and an MRT last of 21 ± 1.85 h.

In data set [1], `CC[C@H](C)[C@H](NC(=O)C(C)(C)NC(=O)[C@H](Cc1ccc(O)cc1)NC(=O)[C@H](CC(=O)O)NC(=O)[C@H](CO)NC(=O)[C@@H](NC(=O)C(C)(Cc1ccccc1)NC(=O)[C@@H](NC(=O)CNC(=O)[C@H](CCC(=O)O)NC(=O)C(C)(C)NC(=O)[C@@H](N)Cc1ccc(O)cc1)[C@@H](C)O)[C@@H](C)O)C(=O)NC(C)(C)C(=O)N[C@@H](CC(C)C)C(=O)N[C@@H](CC(=O)O)C(=O)N[C@@H](CCCCN)C(=O)N[C@@H](CCC(N)=O)C(=O)N[C@@H](C)C(=O)N[C@@H](CCC(N)=O)C(=O)N[C@@H](C)C(=O)N[C@@H](CCC(=O)O)C(=O)N[C@@H](Cc1ccccc1)C(=O)N[C@H](C(=O)N[C@@H](CCCCNC(=O)COCCOCCNC(=O)COCCOCCNC(=O)CC[C@H](NC(=O)CCCCCCCCCCCCCCCCCCC(=O)O)C(=O)O)C(=O)N[C@@H](Cc1c[nH]c2ccccc12)C(=O)N[C@@H](CC(C)C)C(=O)N[C@@H](CC(C)C)C(=O)N[C@@H](CCCCN)C(=O)NCC(=O)NCC(=O)N1CCC[C@H]1C(=O)N[C@@H](CO)C(=O)N[C@@H](CO)C(=O)NCC(=O)N[C@@H](C)C(=O)N1CCC[C@H]1C(=O)N1CCC[C@H]1C(=O)N1CCC[C@H]1C(=O)N[C@@H](CO)C(=O)N[C@@H](CCCCN)C(N)=O)C(C)C` (some centres unmarked) [P013] gave an MRT inf of 29.9 ± 1.33 h and a mean residence time MRT last of 26.2 ± 0.7 h.

Take `CC[C@H](C)[C@H](NC(=O)C(C)(C)NC(=O)[C@H](Cc1ccc(O)cc1)NC(=O)[C@H](CC(=O)O)NC(=O)[C@H](CO)NC(=O)[C@@H](NC(=O)C(C)(Cc1ccccc1)NC(=O)[C@@H](NC(=O)CNC(=O)[C@H](CCC(=O)O)NC(=O)C(C)(C)NC(=O)[C@@H](N)Cc1ccc(O)cc1)[C@@H](C)O)[C@@H](C)O)C(=O)NC(C)(C)C(=O)N[C@@H](CC(C)C)C(=O)N[C@@H](CC(=O)O)C(=O)N[C@@H](CCCCN)C(=O)N[C@@H](CCC(N)=O)C(=O)N[C@@H](C)C(=O)N[C@@H](CCC(N)=O)C(=O)N[C@@H](C)C(=O)N[C@@H](CCC(=O)O)C(=O)N[C@@H](Cc1ccccc1)C(=O)N[C@H](C(=O)N[C@@H](CCCCN)C(=O)N[C@@H](Cc1c[nH]c2ccccc12)C(=O)N[C@@H](CC(C)C)C(=O)N[C@@H](CC(C)C)C(=O)N[C@@H](CCCCNC(=O)COCCOCCNC(=O)COCCOCCNC(=O)CC[C@H](NC(=O)CCCCCCCCCCCCCCCCCCCCC(=O)O)C(=O)O)C(=O)NCC(=O)NCC(=O)N1CCC[C@H]1C(=O)N[C@@H](CO)C(=O)N[C@@H](CO)C(=O)NCC(=O)N[C@@H](C)C(=O)N1CCC[C@H]1C(=O)N1CCC[C@H]1C(=O)N1CCC[C@H]1C(=O)N[C@@H](CO)C(=O)N[C@@H](CCCCN)C(N)=O)C(C)C` (some centres unmarked) [P017]: in data set [1], the MRT inf amounted to 36.9 ± 3.46 h and the MRT last was determined as 27.9 ± 2.99 h. In data set [2], this molecule showed an MRT inf of 77.8 ± 12.2 h and an MRT last of 76.4 ± 12.7 h.

In data set [1], `CC[C@H](C)[C@H](NC(=O)C(C)(C)NC(=O)[C@H](Cc1ccc(O)cc1)NC(=O)[C@H](CC(=O)O)NC(=O)[C@H](CO)NC(=O)[C@@H](NC(=O)C(C)(Cc1ccccc1)NC(=O)[C@@H](NC(=O)CNC(=O)[C@H](CCC(=O)O)NC(=O)C(C)(C)NC(=O)[C@@H](N)Cc1ccc(O)cc1)[C@@H](C)O)[C@@H](C)O)C(=O)NC(C)(C)C(=O)N[C@@H](CC(C)C)C(=O)N[C@@H](CC(=O)O)C(=O)N[C@@H](CCCCN)C(=O)N[C@@H](CCC(N)=O)C(=O)N[C@@H](C)C(=O)N[C@@H](CCC(N)=O)C(=O)N[C@@H](C)C(=O)N[C@@H](CCC(=O)O)C(=O)N[C@@H](Cc1ccccc1)C(=O)N[C@H](C(=O)N[C@@H](CCCCN)C(=O)N[C@@H](Cc1c[nH]c2ccccc12)C(=O)N[C@@H](CC(C)C)C(=O)N[C@@H](CC(C)C)C(=O)N[C@@H](CCCCNC(=O)COCCOCCNC(=O)COCCOCCNC(=O)CC[C@H](NC(=O)CC[C@H](NC(=O)CC[C@H](NC(=O)CCCCCCCCCCCCCCCCC(=O)O)C(=O)O)C(=O)O)C(=O)O)C(=O)NCC(=O)NCC(=O)N1CCC[C@H]1C(=O)N[C@@H](CO)C(=O)N[C@@H](CO)C(=O)NCC(=O)N[C@@H](C)C(=O)N1CCC[C@H]1C(=O)N1CCC[C@H]1C(=O)N1CCC[C@H]1C(=O)N[C@@H](CO)C(=O)N[C@@H](CCCCN)C(N)=O)C(C)C` (some centres unmarked) [P018] displayed an MRT inf of 33.4 ± 7 h and an MRT last of 28.5 ± 4.45 h.

In the case of `CC[C@H](C)[C@H](NC(=O)C(C)(C)NC(=O)[C@H](Cc1ccc(O)cc1)NC(=O)[C@H](CC(=O)O)NC(=O)[C@H](CO)NC(=O)[C@@H](NC(=O)C(C)(Cc1ccccc1)NC(=O)[C@@H](NC(=O)CNC(=O)[C@H](CCC(=O)O)NC(=O)C(C)(C)NC(=O)[C@@H](N)Cc1ccc(O)cc1)[C@@H](C)O)[C@@H](C)O)C(=O)NC(C)(C)C(=O)N[C@@H](CC(C)C)C(=O)N[C@@H](CC(=O)O)C(=O)N[C@@H](CCCCN)C(=O)N[C@@H](CCC(N)=O)C(=O)N[C@@H](C)C(=O)N[C@@H](CCC(N)=O)C(=O)N[C@@H](C)C(=O)N[C@@H](CCC(=O)O)C(=O)N[C@@H](Cc1ccccc1)C(=O)N[C@H](C(=O)N[C@@H](CCCCN)C(=O)N[C@@H](Cc1c[nH]c2ccccc12)C(=O)N[C@@H](CC(C)C)C(=O)N[C@@H](CC(C)C)C(=O)N[C@@H](CCCCNC(=O)COCCOCCNC(=O)COCCOCCNC(=O)COCCOCCNC(=O)CC[C@H](NC(=O)CCCCCCCCCCCCCCCCC(=O)O)C(=O)O)C(=O)NCC(=O)NCC(=O)N1CCC[C@H]1C(=O)N[C@@H](CO)C(=O)N[C@@H](CO)C(=O)NCC(=O)N[C@@H](C)C(=O)N1CCC[C@H]1C(=O)N1CCC[C@H]1C(=O)N1CCC[C@H]1C(=O)N[C@@H](CO)C(=O)N[C@@H](CCCCN)C(N)=O)C(C)C` (some centres unmarked) [P019], in data set [1], the MRT inf came out at 18.3 ± 2.76 h and the MRT last was determined as 17.1 ± 2.55 h.
